Columns and labels:
[1] = target: T1, YFP-tagged full length 0N4R-Tau P301S aggregates seeded by 416-AD11A lysate (T24 cells) (Homo sapiens, UniProt P10636, P618S); test: Tau-AD high throughput screening (counter screen) in T24 cells; type: cell-based; conditions: T24 cells transfected with 416-AD11A lysate
T1 construct: C-terminally YFP-tagged full length 0N4R-Tau carrying a P301S mutation; expressed in transfected cells
Procedure: A fragment of the Middle Tempral Gyrus (MTG) from Alzheimer's Disease (AD) patient 2217 was resuspended in 9 volumes of PBS (ml/g of brain) and homogenized 3×12 seconds using a probe homogenizer (Thomas Scientific) with disposable Omni Tip plastic homogenizing probes (Thomas Scinetific Cat No 3409Y77) to generate a 10% brain homogenate (10% AD11-BH). The 10% AD11-BH was clarified of insoluble debris by centrifugation at 800×g for 5 minutes. The resulting supernatant was collected and the protein concentration of this clarified BH (AD11-CBH) was determined by bicinchoninic acid assay (BCA) (Thermo Fisher Cat No. 23227). HEK293 cells stably expressing a C-terminally Clover-tagged truncated 4R-Tau^243-382 transgene containing the P301L and V337M mutations and a C-terminally Ruby-tagged truncated 3R-Tau^243-382 transgene containing the L266V and V337M mutations (128/139 cells) were transfected with the AD11-CBH using lipofectamine 2000 (LF2K) (Thermo Fisher Cat No. 11668500). Briefly, 0.32 μl of LF2K were diluted in 5 μl Opti-MEM (Thermo Scientific Cat No 31985070) per well of a 384-well plate and incubated for 5 min at room temperature (RT). This mixture was added to 0.32 μg of AD11-CBH diluted in 5 μl of PBS per well of a 384-well plate and vortex briefly. The transfection mixture was incubated at room temperature for 90 min. The transfection complexes were subsequently added to a single well of a 384-well plate containing 3500 128/139 cells. After 3 days the cells were harvested, counted and plated at a density of 1 cell/well in a 96-well plate. A clonal cell line containing Clover and Ruby positive Tau aggregates was selected and termed 416-AD11A cells. Following the expansion of these 416-AD11A cells, a cell lysate was prepared by freeze/thaw. The cells from a confluent T175 flask were harvested in 1 ml of PBS containing 1× protease inhibitor cocktail by scraping. The cell suspension was subjected to 4 cycles of freezing in liquid nitrogen for 5 minutes followed by thawing at 37° C. for 5 minutes. The resulting cell lysate was centrifuged at 2000 RPM for 10 minutes to remove the cell debris and the protein concentration of the resulting 416-AD11A lysate was determined by BCA assay and aliquots frozen for future use.
HEK293 cells stably expressing C-terminally YFP-tagged full length 0N4R-Tau carrying a P301S mutation (T24 cells) are plated at a density of 4000 cells per well of a 384-well black walled, clear bottom plate (Greiner Cat No 5678-1091Q) in 60 μl of complete DMEM (DMEM (Corning Cat No 10-013-CV), 10% FBS (VWR Cat No 97068-085, 0.5% Penicilin/streptomycin (Gibco Cat No 15140-122)) containing 0.1 μg/ml Hoechst Dye (Thermo Scientific Cat No H3570). Transfection complexes are prepared by diluting 0.15 μg of 416-AD11A lysate or HEK lysate in 5 μl of PBS per well to be transfected and 0.15 μl of Lipofectamine 2000 (LF2K) (ThermoFisher Cat No 11668500) in 5 μl of Opti-MEM per well to be transfected in separate tubes. The pre-diluted 416-AD11A or HEK lysates and LF2K are subsequently mixed and allowed to incubate for 90 minutes at RT. A 10 μl aliquot of the 416-AD11A or HEK transfection complexes is added to the appropriate wells of the 384-well plate containing the T24 cells using the Bravo liquid handling platform (Agilent). Wells A23-P24 of the 384-well plate are transfected with HEK lysate to act as a reference point for spontaneous aggregation of 0N4R^P301S and for transfection related toxicity. The dilution of test compounds is performed using the Bravo liquid handling platform (Agilent). The control is DMSO in the absence of any test compound. Briefly, 1 μl of each test compound (5 mM stock) in the 384-well test plate was transferred to a 384-well plate (Greiner Cat No 781280) containing 61.5 μl of complete DMEM to generate a working stock of compounds at 80 μM. […]

[2] = Parallel Artificial Membrane Permeability Assay (PAMPA); type: in vitro ADME; conditions: for PAMPA: P_app: 200 uM test compound, 4 hr
Procedure: 5 uL of 1% lecithin (VWR 0579) dissolved in n-dodecane (Sigma Aldrich D221104) was applied to each well of a MultiScreen IP PAMPA filter plate (Millipore MAIPSWU10) and allowed to equilibrate for 5 minutes. 300 uL of PBS was added to the acceptor plate and 150 uL of 200 uM test compound dissolved in PBS and 30% ethanol was added to the donor wells before incubating the donor plate in the acceptor plate for 4 hr at 500 rpm. 100 uL was sampled from the donor and acceptor wells and the concentrations were measured by liquid chromatography-mass spectrometry (SCIEX 4500) or UV-VIS plate reader (BMG).

T1 sequence (P10636 1-383 isoform P10636-6 P243S): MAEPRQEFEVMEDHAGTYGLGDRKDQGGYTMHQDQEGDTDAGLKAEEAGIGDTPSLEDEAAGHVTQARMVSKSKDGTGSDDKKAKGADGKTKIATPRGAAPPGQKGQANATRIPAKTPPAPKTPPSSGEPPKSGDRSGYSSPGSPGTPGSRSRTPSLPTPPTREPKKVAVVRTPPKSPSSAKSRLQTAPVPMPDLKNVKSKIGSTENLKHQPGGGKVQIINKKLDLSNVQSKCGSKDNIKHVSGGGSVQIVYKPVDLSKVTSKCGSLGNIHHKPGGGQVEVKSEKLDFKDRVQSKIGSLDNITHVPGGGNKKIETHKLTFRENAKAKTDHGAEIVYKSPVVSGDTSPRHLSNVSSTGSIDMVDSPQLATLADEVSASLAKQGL

Structure (SMILES) | AD Tau Aggregates (% control) [1] [% control] | PAMPA: P_app ([2]; pH 5.0) [×10e−6 cm/sec] | PAMPA: P_app ([2]; pH 7.4) [×10e−6 cm/sec] | Papp at 4 hr, 200 uM ([2]; PAMPA, pH 5.0, 200 uM test compound, read-out: PAMPA: P_app) [×10⁻⁶ cm/s]
CNC(=O)c1ncc2c(-c3cccc4c3OC(F)(F)O4)nn(Cc3ccccc3)c2n1 [Compound 254] | 100 | – | – | –
CNC(=O)c1ncc2c(-c3ccc(F)cc3)nn(C3CCc4ccc(F)cc43)c2n1 (stereo not shown) [Compound 257, 1-(6-fluoro-2,3-dihydro-1H-inden-1-yl)-3-(4-fluorophenyl)-N-methyl-1H-pyrazolo[3,4-d]pyrimidine-6-carboxamide] | 100 | – | – | –
Cc1cc(-c2nc(-n3cc4ccn(C5CC5)c4nc3=O)c(-c3ccc(Cl)c(F)c3)o2)ccn1 [Compound 232, 3-[5-(4-chloro-3-fluorophenyl)-2-(2-methylpyridin-4-yl)-1,3-oxazol-4-yl]-7-cyclopropyl-2H,3H,7H-pyrrolo[2,3-d]pyrimidin-2-one] | 91 | – | – | –
CNC(=O)c1ncc2c(-c3ccc(F)cc3)nn(CC3CCCCC3)c2n1 [Compound 258] | 110 | – | – | –
CNC(=O)c1ncc2c(-c3cc4ccccc4cn3)nn(Cc3ccccc3)c2n1 [Compound 256, 1-benzyl-3-(isoquinolin-3-yl)-N-methyl-1H-pyrazolo[3,4-d]pyrimidine-6-carboxamide] | 100 | – | >50 | > 50
CCNc1nc(=O)n(-c2nc(-c3ccc(Cl)cc3)oc2-c2ccc(Cl)c(F)c2)cc1F [Compound 127, 1-(5-(4-chloro-3-fluorophenyl)-2-(4-chlorophenyl)oxazol-4-yl)-4-(ethylamino)-5-fluoropyrimidin-2(1H)-one] | 105 | – | – | –
Cc1ccn(-c2nc(-n3cc4ccn(C(F)(F)F)c4nc3=O)c(-c3ccc(F)cc3)o2)n1 [Compound 241] | 98 | – | 1.36 | –
CNC(=O)c1ncc2c(-c3cc4c(cnn4C)cc3F)nn(Cc3ccccc3)c2n1 [Compound 253] | 96 | – | – | –
CNc1nc(=O)n(-c2nc(-c3cccc(C)c3)oc2-c2ccc(F)c(F)c2)cc1F.Cl [Compound 133, 1-(5-(3,4-difluorophenyl)-2-(m-tolyl)oxazol-4-yl)-5-fluoro-4-(methylamino)pyrimidin-2(1H)-one hydrochloride] | 92 | – | – | –
CNc1nc(=O)n(-c2nc(-c3ccc(Cl)cc3)oc2-c2ccc(Cl)c(F)c2)cc1F.Cl [Compound 126, 1-(5-(4-chloro-3-fluorophenyl)-2-(4-chlorophenyl)oxazol-4-yl)-5-fluoro-4-(methylamino)pyrimidin-2(1H)-one hydrochloride] | 93 | – | – | –
CNC(=O)c1ncc2c(-c3ccc(F)cc3)nn(Cc3ccc(F)cc3)c2n1 [Compound 261] | 87 | – | – | –
CC(O)COc1ccc(-c2nc(-n3cc4ccoc4nc3=O)c(-c3ccc(F)cc3)o2)cc1 (stereo not shown) [Compound 182, 3-[5-(4-fluorophenyl)-2-[4-(2-hydroxypropoxy)phenyl]-1,3-oxazol-4-yl]-2H,3H-furo[2,3-d]pyrimidin-2-one] | 93 | – | – | –
CNc1nc(=O)n(-c2nc(-c3cccc(C)c3)oc2-c2cc(Cl)cs2)cc1F [Compound 135, 1-(5-(4-chlorothiophen-2-yl)-2-(m-tolyl)oxazol-4-yl)-5-fluoro-4-(methylamino)pyrimidin-2(1H)-one] | 100 | – | – | –
CNC(=O)c1ncc2c(-c3ccc(F)cc3)nn(Cc3cccc(F)c3)c2n1 [Compound 260] | 95 | – | – | –
CNc1nc(=O)n(-c2nc(-c3ccc(C)s3)oc2-c2ccc(Cl)c(F)c2)cc1F [Compound 132, 1-(5-(4-chloro-3-fluorophenyl)-2-(5-methylthiophen-2-yl)oxazol-4-yl)-5-fluoro-4-(methylamino)pyrimidin-2(1H)-one] | 95 | – | – | –
CNC(=O)c1ncc2c(-c3ccc(F)cc3)nn(Cc3ccnc(F)c3)c2n1 [Compound 259] | 99 | – | – | –
CC(=O)Cc1nccc2cc(-c3nc(-n4ccc5cccnc5c4=O)c(-c4ccc(C(F)(F)F)cc4)o3)ccc12 [Compound 176, 7-(2-(1-(2-oxopropyl)isoquinolin-6-yl)-5-(4-(trifluoromethyl)phenyl)oxazol-4-yl)-1,7-naphthyridin-8(7H)-one] | 96 | – | – | –
CNC(=O)c1ncc2c(N3CCCC3)nn(-c3ccc(F)cc3)c2n1 [Compound 247, 1-(4-fluorophenyl)-N-methyl-3-(pyrrolidin-1-yl)-1H-pyrazolo[3,4-d]pyrimidine-6-carboxamide] | 120 | – | – | –
Cc1cc(-c2nc(-n3cc4ccn(C5CC5)c4nc3=O)c(-c3ccc(F)c(F)c3)o2)ncc1F [Compound 234] | 85 | – | – | –

Second part, the compound after the results:

AD Tau Aggregates (% control) [1] [% control] | PAMPA: P_app ([2]; pH 5.0) [×10e−6 cm/sec] | PAMPA: P_app ([2]; pH 7.4) [×10e−6 cm/sec] | Papp at 4 hr, 200 uM ([2]; PAMPA, pH 5.0, 200 uM test compound, read-out: PAMPA: P_app) [×10⁻⁶ cm/s] | Structure (SMILES)
110 | – | – | – | CC(=O)Nc1ncc2c(-c3ccccc3)nn(C(C)c3ccccc3)c2n1 (stereo not shown) [Compound 265]
92 | 44.7 | >50 | – | CC(=O)Nc1ncc2c(-c3ccccc3)nn(Cc3ccncc3)c2n1 [Compound 279]
110 | – | – | – | CNC(=O)c1ncc2c(-c3ccccc3)cn(-c3ccccc3)c2n1 [Compound 291, N-methyl-5,7-diphenyl-7H-pyrrolo[2,3-d]pyrimidine-2-carboxamide]
100 | – | – | – | CNc1ncc2c(-c3ccccc3)nn(-c3ccccc3)c2n1 [Compound 286, N-methyl-1,3-diphenyl-1H-pyrazolo[3,4-d]pyrimidin-6-amine]
98 | >50 | >50 | – | CC(=O)Nc1ncc2c(-c3ccccc3C)nn(Cc3ccccc3)c2n1 [Compound 266]
91 | – | 5.98 | – | CC(=O)Nc1ncc2c(-c3ccccc3)nn(Cc3cncc(F)c3)c2n1 [Compound 267]
120 | >50 | >50 | – | CNC(=O)c1ncc2c(-c3ccccc3)nn(-c3ccc(F)cc3)c2n1 [Compound 246]
90 | 19.5 | 19.5 | – | CC(=O)Nc1ncc2c(-c3ccccc3)nn(CC3CCCCC3)c2n1 [Compound 280]
105 | – | – | – | CC(=O)Nc1ncc2c(-c3ccccc3C#N)nn(Cc3ccccc3)c2n1 [Compound 268]

From US20240197682A1, “METHOD FOR TREATING NEUROLOGICAL DISEASES USING SUPRAMOLECULE POLYMER THERAPEUTICS” (The Regents of the University of California, priority 2022, published 2024)
